The values below come from patent US11078216B2, “Bisaryl amides as NRF2 activators” (GLAXOSMITHKLINE INTELLECTUAL PROPERTY DEVELOPMENT LIMITED, priority 2016, dated 2021).

The assay concerns NRF2 (NQO1 activity as marker for NRF2 activation), BEAS-2B cells. The assay is described as follows: BEAS-2B NQO1 MTT Assay. The assay is classed as cell-based. Particulars: Homo sapiens, EC50 of NQO1 specific activity induction, 48 hours incubation, read-out: EC50. The procedure, abridged: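 BEAS-2B cells were exposed to compound for 48 h at 37° C, 5% CO2, then lysed. NQO1 activity was measured kinetically by MTT reduction at 570 nm over 30 minutes; EC50 came from 3-parameter fit of Delta OD/min versus log concentration.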

By pEC50 is commonly meant the EC50 on a negative log10 scale, so that one unit is a factor of ten.

Molecules are shown by their SMILES. pEC50: −log10 of the molar value. Counter-ions that a name gives are not always drawn.

Consider `CC[C@H]1Cc2ccccc2S(=O)(=O)N(Cc2cc([C@@H](c3ccc4c(nnn4CC)c3C)C(C)(C)C(=O)Nc3ncns3)ccc2C)C1` [Example 71, (S)-3-(3-(((S)-4-Ethyl-1,1-dioxido-4,5-dihydrobenzo[f][1,2]thiazepin-2(3H)-yl)methyl)-4-methylphenyl)-3-(1-ethyl-4-methyl-1H-benzo[d][1,2,3]triazol-5-yl)-2,2-dimethyl-N-(1,2,4-thiadiazol-5-yl)propanamide], for which the negative logarithm of the EC50 (pEC50) was 8.00 to 9.00.

`CC[C@H]1Cc2ccccc2S(=O)(=O)N(Cc2cc([C@@H](c3ccc4c(nnn4CC)c3C)C(C)(C)C(=O)Nc3nnnn3-c3ccccc3)ccc2C)C1` [Example 72, (S)-3-(3-(((S)-4-Ethyl-1,1-dioxido-4,5-dihydrobenzo[f][1,2]thiazepin-2(3H)-yl)methyl)-4-methylphenyl)-3-(1-ethyl-4-methyl-1H-benzo[d][1,2,3]triazol-5-yl)-2,2-dimethyl-N-(1-phenyl-1H-tetrazol-5-yl)propanamide]: the negative-log EC50 (pEC50) was 7.00 to 8.00.

`CC[C@H]1Cc2ccccc2S(=O)(=O)N(Cc2cc([C@@H](c3ccc4c(nnn4CC)c3C)C(C)(C)C(=O)Nc3nnnn3CC(C)=O)ccc2C)C1` [Example 73, (S)-3-(3-(((S)-4-Ethyl-1,1-dioxido-4,5-dihydrobenzo[f][1,2]thiazepin-2(3H)-yl)methyl)-4-methylphenyl)-3-(1-ethyl-4-methyl-1H-benzo[d][1,2,3]triazol-5-yl)-2,2-dimethyl-N-(1-(2-oxopropyl)-1H-tetrazol-5-yl)propanamide]: the negative logarithm of the EC50 (pEC50) is 7.00 to 8.00.

As to `CC[C@H]1Cc2ccccc2S(=O)(=O)N(Cc2cc([C@@H](c3ccc4c(nnn4CC)c3C)C(C)(C)C(=O)Nc3nnnn3-c3ccccn3)ccc2C)C1` [Example 74, (S)-3-(3-(((S)-4-Ethyl-1,1-dioxido-4,5-dihydrobenzo[f][1,2]thiazepin-2(3H)-yl)methyl)-4-methylphenyl)-3-(1-ethyl-4-methyl-1H-benzo[d][1,2,3]triazol-5-yl)-2,2-dimethyl-N-(1-(pyridin-2-yl)-1H-tetrazol-5-yl)propanamide], the pEC50 was 8.00 to 9.00. Take `CC[C@H]1Cc2ccccc2S(=O)(=O)N(Cc2cc([C@@H](c3ccc4c(nnn4CC)c3C)C(C)(C)C(=O)Nc3nnnn3Cc3nccs3)ccc2C)C1` [Example 75, (S)-3-(3-(((S)-4-Ethyl-1,1-dioxido-4,5-dihydrobenzo[f][1,2]thiazepin-2(3H)-yl)methyl)-4-methylphenyl)-3-(1-ethyl-4-methyl-1H-benzo[d][1,2,3]triazol-5-yl)-2,2-dimethyl-N-(1-(thiazol-2-ylmethyl)-1H-tetrazol-5-yl)propanamide]: the pEC50 is 8.00 to 9.00. As for `CC[C@H]1Cc2ccccc2S(=O)(=O)N(Cc2cc([C@@H](c3ccc4c(nnn4CC)c3C)C(C)(C)C(=O)Nc3nnnn3CC(=O)O)ccc2C)C1` [Example 76, 2-(5-((S)-3-(3-(((S)-4-Ethyl-1,1-dioxido-4,5-dihydrobenzo[f][1,2]thiazepin-2(3H)-yl)methyl)-4-methylphenyl)-3-(1-ethyl-4-methyl-1H-benzo[d][1,2,3]triazol-5-yl)-2,2-dimethylpropanamido)-1H-tetrazol-1-yl)acetic Acid], the figure is 7.00 to 8.00; as for `CC[C@@H]1CN(Cc2cc([C@@H](c3ccc4c(nnn4CC)c3C)C(C)(C)NC(=O)c3nnn[nH]3)ccc2C)S(=O)(=O)c2ccccc2O1` [Example 77, N—((S)-1-(3-(((R)-4-Ethyl-1,1-dioxido-3,4-dihydro-2H-benzo[b][1,4,5]oxathiazepin-2-yl)methyl)-4-methylphenyl)-1-(1-ethyl-4-methyl-1H-benzo[d][1,2,3]triazol-5-yl)-2-methylpropan-2-yl)-1H-tetrazole-5-carboxamide, Trifluoroacetic Acid Salt], 6.00 to 7.00; as for `CC[C@H]1Cc2ccc(C(F)(F)F)cc2S(=O)(=O)N(Cc2cc([C@@H](c3ccc4c(nnn4CC)c3C)C(C)(C)NC(=O)Cc3nnn[nH]3)ccc2C)C1` [Example 78, N—((S)-1-(3-(((S)-4-Ethyl-1,1-dioxido-8-(trifluoromethyl)-4,5-dihydrobenzo[f][1,2]thiazepin-2(3H)-yl)methyl)-4-methylphenyl)-1-(1-ethyl-4-methyl-1H-benzo[d][1,2,3]triazol-5-yl)-2-methylpropan-2-yl)-2-(1H-tetrazol-5-yl)acetamide], 7.00 to 8.00.

Regarding `CC[C@@H]1CN(Cc2cc([C@@H](c3ccc4c(nnn4C)c3C)C(C)(C)C(=O)NCCNC)ccc2C)Cc2cnccc2O1` [Example 79, (S)-3-(1,4-Dimethyl-1H-benzo[d][1,2,3]triazol-5-yl)-3-(3-(((R)-2-ethyl-2,3-dihydropyrido[3,4-f][1,4]oxazepin-4(5H)-yl)methyl)-4-methylphenyl)-2,2-dimethyl-N-(2-(methylamino)ethyl)propanamide], the pEC50 was 6.00 to 7.00. As for `CC[C@H]1Cc2ccccc2S(=O)(=O)N(Cc2cc([C@H](CC(=O)Nc3cccnc3)c3ccc4c(nnn4CC)c3F)ccc2C)C1` [Example 80, (S)-3-(3-(((S)-4-Ethyl-1,1-dioxido-4,5-dihydrobenzo[f][1,2]thiazepin-2(3H)-yl)methyl)-4-methylphenyl)-3-(1-ethyl-4-fluoro-1H-benzo[d][1,2,3]triazol-5-yl)-N-(pyridin-3-yl)propanamide], the figure is 7.00 to 8.00; as for `CC[C@H]1Cc2ccccc2S(=O)(=O)N(Cc2cc([C@H](CC(=O)NCCNC)c3ccc4c(nnn4CC)c3F)ccc2C)C1` [Example 81, (S)-3-(3-(((S)-4-Ethyl-1,1-dioxido-4,5-dihydrobenzo[f][1,2]thiazepin-2(3H)-yl)methyl)-4-methylphenyl)-3-(1-ethyl-4-fluoro-1H-benzo[d][1,2,3]triazol-5-yl)-N-(2-(methylamino)ethyl)propanamide], 7.00 to 8.00; as for `CCCn1cc(CC[C@@H](c2ccc(C)c(CN3C[C@@H](CC)Oc4ccccc4S3(=O)=O)c2)C(C)(C)C(=O)Nc2cccnc2)nn1` [Example 82, (S)-3-(3-(((R)-4-Ethyl-1,1-dioxido-3,4-dihydro-2H-benzo[b][1,4,5]oxathiazepin-2-yl)methyl)-4-methylphenyl)-2,2-dimethyl-5-(1-propyl-1H-1,2,3-triazol-4-yl)-N-(pyridin-3-yl)pentanamide], 6.00 to 7.00.

Consider `CCCn1cc(CC[C@H](c2ccc(C)c(CN3C[C@@H](CC)Oc4ccccc4S3(=O)=O)c2)C(C)(C)C(=O)Nc2cccnc2)nn1` [Example 83, (R)-3-(3-(((R)-4-Ethyl-1,1-dioxido-3,4-dihydro-2H-benzo[b][1,4,5]oxathiazepin-2-yl)methyl)-4-methylphenyl)-2,2-dimethyl-5-(1-propyl-1H-1,2,3-triazol-4-yl)-N-(pyridin-3-yl)pentanamide], for which the pEC50 was 6.00 to 7.00.

`CC[C@@H]1CN(Cc2cc([C@@H](c3ccc4c(nnn4C)c3C)C(C)(C)C(=O)Nc3cccnc3)ccc2Cl)S(=O)(=O)c2ccccc2O1` [Example 84, (S)-3-(4-Chloro-3-(((R)-4-ethyl-1,1-dioxido-3,4-dihydro-2H-benzo[b][1,4,5]oxathiazepin-2-yl)methyl)phenyl)-3-(1,4-dimethyl-1H-benzo[d][1,2,3]triazol-5-yl)-2,2-dimethyl-N-(pyridin-3-yl)propanamide]: the negative-log EC50 (pEC50) was 7.00 to 8.00.
